What is called IC50 is the concentration that gives 50% inhibition. One may read the Cmax as the peak of the concentration-time curve.

Read-outs that look alike come from different tables or passages of the source.

One data set relates to PDE1. The data set is described as follows: SPA assay, PDE1 (3H-cyclic GMP substrate, calmodulin). The data set is classed as biochemical. To be noted: bovine PDE1, calmodulin. How it is done: (§1) Inhibition of PDE activity in Hut78 cell lysate was determined using an SPA specific for cAMP (Amersham Pharmacia Biotech, Buckinghamshire, UK) according to the manufacturers instructions with minor modifications. Enzyme assays were performed at room temperature in the presence of 50 mM Tris HCl, pH7.5, containing 8.3 mM MgCl2, 1.7 mM EGTA and 0.5 mg/mL BSA. Each assay was performed in a 100 μL reaction volume in 96 well microtitre plates containing the above buffer, 0.3 ul of Hut78 cell lysate treated with 2 uM Zardaverine to inhibit PDE3 and PDE4, 0.05 uCi of [5′,8-3H] Adenosine 3′,5′-cyclic phosphate as an ammonium salt for 20 min. The reaction was terminated by the addition of 50 μl PDE SPA beads (1 mg) water with 10 mM cold cAMP (Sigma, St. Louis Mo.). The reaction mix was allowed to settle for 20 minutes before counting in a Top Count-NXT scintillation counter (Packard BioScience, Meriden, Conn.). […] The following PDEs/activators and enzyme sources were used: PDE1, bovine (Sigma St Louis), calmodulin; PDE2, rat kidney, cGMP; PDE3, human platelet; PDE4, rat kidney; PDE5, human platelet, and PDE6, bovine retina.
(§2) The LPS human PBMC TNF production assay was performed as described above.

The next data set has as its target T1, PDE7 (Homo sapiens, UniProt Q13946).
T1 construct: endogenous in cells; host or cells: Hut78 cells (crude lysate)
The data set is described as follows: SPA assay for cAMP, PDE7 in Hut78 cell lysate treated with Zardaverine. The data set is classed as biochemical. To be noted: for IC50: Hut78 cell lysate, SPA. As for the experimental part: Hut78 cells were grown in 10% FCS in Iscoves Modified Dulbecco's Medium (Gibco BRL-Life Technologies, Grand Island, N.Y.) with antibiotics. Cells were centrifuged and resuspended in four volumes of [40 mM Tris (pH 7.5)/50 μM EDTA/200 μM PMSF with a cocktail of Protease inhibitors (Boehringher Mannheim, Indianapolis, Ind.)] at 4 C. Cells were homogenized using a Virtis homogenizer, and the lysate was centrifuged twice for 15 min at 15,000×g. Glycerol was added to a final volume of 50% for storage at −20C.
as §1, §2

The nature of data set [1]: Pharmacokinetic data in mice for Example F1 and rolipram. Type of data set: in vivo. To be noted: for Cmax: mouse, plasma.
The target of another data set is T2, PDE6 (Bos taurus, UniProt P11541+P23439).
T2 construct: PDE6, bovine retina; from tissue; host or cells: bovine retina
T2 sequence (P11541 2-856 limits assumed): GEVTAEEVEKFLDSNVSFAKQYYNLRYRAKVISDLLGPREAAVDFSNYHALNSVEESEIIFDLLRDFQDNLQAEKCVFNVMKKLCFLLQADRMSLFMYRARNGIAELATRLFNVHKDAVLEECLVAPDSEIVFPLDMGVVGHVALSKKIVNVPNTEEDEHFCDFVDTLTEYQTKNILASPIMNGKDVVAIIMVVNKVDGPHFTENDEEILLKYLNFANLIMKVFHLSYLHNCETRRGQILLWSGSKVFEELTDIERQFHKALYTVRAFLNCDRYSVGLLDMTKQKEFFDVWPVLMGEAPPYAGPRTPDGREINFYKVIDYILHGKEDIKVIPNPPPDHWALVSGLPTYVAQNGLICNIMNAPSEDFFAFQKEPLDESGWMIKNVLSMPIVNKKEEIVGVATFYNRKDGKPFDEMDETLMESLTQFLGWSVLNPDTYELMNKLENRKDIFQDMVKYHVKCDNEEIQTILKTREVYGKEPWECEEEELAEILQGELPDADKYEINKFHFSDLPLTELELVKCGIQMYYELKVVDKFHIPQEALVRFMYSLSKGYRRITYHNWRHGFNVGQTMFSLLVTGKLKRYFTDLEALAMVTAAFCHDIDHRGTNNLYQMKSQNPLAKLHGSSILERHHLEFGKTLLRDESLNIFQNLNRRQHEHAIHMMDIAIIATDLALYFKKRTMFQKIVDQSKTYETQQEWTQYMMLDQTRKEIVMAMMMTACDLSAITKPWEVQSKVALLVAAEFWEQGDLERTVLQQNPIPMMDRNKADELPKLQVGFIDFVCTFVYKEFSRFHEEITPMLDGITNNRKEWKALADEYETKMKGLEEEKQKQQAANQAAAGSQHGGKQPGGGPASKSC
T2 sequence (P23439 2-850 limits assumed): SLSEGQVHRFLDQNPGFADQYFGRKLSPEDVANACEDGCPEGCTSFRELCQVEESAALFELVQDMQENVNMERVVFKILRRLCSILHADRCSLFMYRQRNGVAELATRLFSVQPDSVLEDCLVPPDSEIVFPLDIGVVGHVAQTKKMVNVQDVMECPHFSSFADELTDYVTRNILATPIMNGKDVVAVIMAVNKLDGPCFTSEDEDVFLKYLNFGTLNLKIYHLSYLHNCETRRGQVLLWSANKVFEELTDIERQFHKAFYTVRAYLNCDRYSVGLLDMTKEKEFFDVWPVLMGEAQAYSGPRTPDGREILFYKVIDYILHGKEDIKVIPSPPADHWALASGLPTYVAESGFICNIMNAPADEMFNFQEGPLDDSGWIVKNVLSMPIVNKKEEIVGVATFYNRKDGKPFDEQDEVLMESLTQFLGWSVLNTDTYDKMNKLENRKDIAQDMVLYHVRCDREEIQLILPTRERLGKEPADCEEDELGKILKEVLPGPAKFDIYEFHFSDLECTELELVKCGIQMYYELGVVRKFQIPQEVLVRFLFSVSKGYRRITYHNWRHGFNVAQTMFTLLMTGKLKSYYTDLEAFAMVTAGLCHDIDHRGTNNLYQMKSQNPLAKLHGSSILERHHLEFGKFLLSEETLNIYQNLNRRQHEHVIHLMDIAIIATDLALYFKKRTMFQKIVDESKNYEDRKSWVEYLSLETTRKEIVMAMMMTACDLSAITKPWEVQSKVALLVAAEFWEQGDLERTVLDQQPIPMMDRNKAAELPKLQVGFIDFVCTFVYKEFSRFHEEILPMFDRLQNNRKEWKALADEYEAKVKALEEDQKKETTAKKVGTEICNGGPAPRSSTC
Briefly: SPA assay, PDE6 (bovine retina, 3H-cyclic GMP substrate). Type of data set: biochemical. As for the experimental part: as §1, §2

In a further data set the test system is PDE4. The data set is described as follows: SPA assay, PDE4 (rat kidney). The data set is classed as biochemical. How it is done:
as §1, §2

Another data set deals with T3, PDE3 (Homo sapiens, UniProt Q14432).
T3 construct: PDE3, human platelet; from tissue; host or cells: human platelet
Briefly: SPA assay, PDE3 (human platelet). The data set is classed as biochemical. As for the experimental part:
as §1, §2

Data set [2] deals with Lipopolysaccharide (LPS) induced tumor necrosis factor (TNF) production. The data set is described as follows: LPS induced TNF production in mice (Examples I-1, I-2). The data set is classed as in vivo. The note with it: for reduction in serum TNF: Example I-1; for inhibited TNF production: Example I-2. As for the experimental part: Mice were exposed to lipopolysaccharide to induce production of tumor necrosis factor as described by Cornwell, et. al. (Lipopolysaccharide, but not lethal infection, releases tumor necrosis factor in mice. Cornwell, R. D.; Golenbock, D. T.; Proctor, R. A. Adv.; Exp. Med. Biol. (1990), 256(Endotoxin), 585-8.). The mice were divided in to groups of eight animals each. All animals received an intraperitoneal (IP) injection of 50 μg/kg of LPS. The vehicle control group of animals received 0.2 mL of a vehicle of tween80 (5%), 95% ethanol (5%) and water 90%, sixty minutes prior to administration of LPS, and an IP injection of 0.2 mL of water fifteen minutes prior to administration of LPS. […] A group of mice (F1 group) were administered 0.2 mL of a vehicle of tween80 (5%), 95% ethanol (5%) and water 90%, sixty minutes prior to administration of LPS, and Example F1, at a dose of 7.5 mg/kg, IP in water, fifteen minutes prior to administration of LPS. […] A group of mice (dexamethasone group) were administered a 5 mg/kg dose of dexamethasone in a vehicle of tween80 (5%), 95% ethanol (5%) and water 90%, sixty minutes prior to administration of LPS, and 0.2 mL of water IP, fifteen minutes prior to administration of LPS.
Cilomilast inhibited TNF production by 56% (p<0.05). […] Finally the dexamethasone control inhibited TNF production 94%.

In the next data set the target is T4, PDE5 (Homo sapiens, UniProt O76074).
T4 construct: PDE5, human platelet; from tissue; host or cells: human platelet
Briefly: SPA assay, PDE5 (human platelet, 3H-cyclic GMP substrate). The data set is classed as biochemical. How it is done:
as §1, §2

The subject of data set [3] is LPS human PBMC TNF production. Briefly: LPS human PBMC TNF production assay. The data set is classed as cell-based. The note with it: LPS 6.25 ng/ml, 4 h. How it is done:
Peripheral blood mononuclear cells (PBMC) were isolated from whole blood by density gradient centrifugation over Lymphoprep, 1.077. Cells were plated into 96 well U-bottom plates at 2.5×10^5 cells/well in 10% FBS RPMI 1640 (Life Technologies/Gibco-BRL) containing 10 ug/ml anti-CD3 (G19-4, Bristol-Myers Squibb P.R.I., Princeton, N.J.) and lug/ml anti-CD28 (9.3, Bristol-Myers Squibb P.R.I.) in the presence and absence of inhibitors. DMSO (used as a solvent for inhibitors) was added to the medium at 0.1% final concentration. The total volume per well was 200 μL. Cells were incubated at 37 C. 5% CO2 for 3 days, at which time 0.5 μCi of ^3H-thymidine was added to each well. Six hours following the addition of ^3H-thmidine, the plates were harvested onto filter plates, 30 ul EcoLite scintillant (ICN, Costa Mesa, Calif.) was added per well, and plates read on a Top Count-NXT scintillation counter.
The ability of compounds to inhibit the production and secretion of TNFα from leukocytes was performed using either PBMC (obtained as described above) or the THP-1 cell line as a source of monocytes. Compounds were diluted in RPMI 1640 supplemented with 10% FBS and DMSO at a final concentration of 0.2%. […] Soluble TNFα was detected by ELISA developed by R&D Systems (Minneapolis, Minn.) according to the manufacturers instructions. […]

The mark [4] stands for this setting: mice, F1 30 mg/kg IP, rolipram 10 mg orally.

T1 sequence (Q13946 whole entry): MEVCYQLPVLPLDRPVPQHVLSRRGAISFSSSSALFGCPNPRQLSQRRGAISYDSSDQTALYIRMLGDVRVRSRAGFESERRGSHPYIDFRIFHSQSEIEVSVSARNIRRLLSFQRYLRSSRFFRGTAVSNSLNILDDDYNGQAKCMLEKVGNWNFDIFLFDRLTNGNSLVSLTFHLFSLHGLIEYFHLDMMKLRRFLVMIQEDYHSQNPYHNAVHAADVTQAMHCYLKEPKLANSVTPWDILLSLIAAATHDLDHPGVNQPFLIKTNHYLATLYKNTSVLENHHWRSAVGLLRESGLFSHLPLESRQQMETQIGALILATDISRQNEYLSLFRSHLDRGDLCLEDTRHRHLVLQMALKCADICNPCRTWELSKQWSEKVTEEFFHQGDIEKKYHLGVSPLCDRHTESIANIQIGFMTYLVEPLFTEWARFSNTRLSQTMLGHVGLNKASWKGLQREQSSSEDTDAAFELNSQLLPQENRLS
T3 sequence (Q14432 whole entry): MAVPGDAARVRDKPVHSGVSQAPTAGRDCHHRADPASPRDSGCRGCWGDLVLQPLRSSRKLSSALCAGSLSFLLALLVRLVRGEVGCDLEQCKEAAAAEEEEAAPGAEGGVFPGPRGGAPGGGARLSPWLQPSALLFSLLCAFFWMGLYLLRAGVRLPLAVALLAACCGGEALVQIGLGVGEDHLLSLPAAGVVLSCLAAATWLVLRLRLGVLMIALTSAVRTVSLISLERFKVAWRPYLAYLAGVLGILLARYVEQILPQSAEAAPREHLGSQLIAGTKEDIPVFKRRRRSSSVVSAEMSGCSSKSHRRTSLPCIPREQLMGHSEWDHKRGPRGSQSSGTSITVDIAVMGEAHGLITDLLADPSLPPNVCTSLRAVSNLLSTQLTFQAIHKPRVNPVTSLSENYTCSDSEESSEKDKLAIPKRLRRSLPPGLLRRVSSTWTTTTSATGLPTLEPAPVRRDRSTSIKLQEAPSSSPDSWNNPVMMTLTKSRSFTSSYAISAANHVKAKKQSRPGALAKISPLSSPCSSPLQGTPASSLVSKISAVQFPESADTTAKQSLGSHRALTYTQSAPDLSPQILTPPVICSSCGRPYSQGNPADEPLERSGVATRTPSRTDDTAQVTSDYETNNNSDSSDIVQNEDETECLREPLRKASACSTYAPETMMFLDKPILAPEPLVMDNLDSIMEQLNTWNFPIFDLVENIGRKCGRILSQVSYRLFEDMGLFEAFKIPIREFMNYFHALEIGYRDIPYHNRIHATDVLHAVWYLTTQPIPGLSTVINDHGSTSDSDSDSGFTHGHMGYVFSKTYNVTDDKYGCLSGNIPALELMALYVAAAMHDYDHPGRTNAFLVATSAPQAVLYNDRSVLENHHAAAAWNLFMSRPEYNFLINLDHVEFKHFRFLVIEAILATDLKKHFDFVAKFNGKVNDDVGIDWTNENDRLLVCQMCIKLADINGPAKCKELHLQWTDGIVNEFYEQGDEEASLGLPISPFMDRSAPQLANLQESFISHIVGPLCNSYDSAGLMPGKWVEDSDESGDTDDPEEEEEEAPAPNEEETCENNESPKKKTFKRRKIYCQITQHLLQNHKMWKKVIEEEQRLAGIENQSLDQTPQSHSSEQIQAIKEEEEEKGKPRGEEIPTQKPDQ

In the case of `CCOC(=O)c1sc(Nc2nc(NCc3cc(OC)c(OC)c(OC)c3)cc(N3CCC(N(C)C)CC3)n2)nc1C` [Example F1, 2-[[4-[4-(Dimethylamino)-1-piperidinyl]-6-[[(3,4,5-trimethoxphenyl)methyl]amino]-2-pyrimidinyl]amino]-4-methyl-5-thiazolecarboxylic Acid, Ethyl Ester], the IC50 turned out to be 4.3 µM with PDE1; 0.03 µM on PDE7; 7.5 µM against PDE6; 3 µM in the data set on PDE4; 32 µM at PDE3; 2.8 µM at PDE5. At PDE7 (ratio of PDE4 and PDE7 IC50), the “selective for PDE7 over PDE4” value came out at 100 fold. Besides, in data set [1] (mice, F1 30 mg/kg), the “plasma concentration of F1 compared with its PDE4 IC50” value is on record as “does not reach the PDE4 IC50”. For the same compound, the “change of Cmax of F1 by co-administration of rolipram” value in data set [1] (setting [4]) is on record as “essentially unchanged”. Moreover, the Cmax in [1] (mice, F1 30 mg/kg IP alone, read-out: Cmax, F1) worked out at 2.2 µM. Also, the “reduction in serum TNF” value in data set [2] (F1 7.5 mg/kg IP 15 min prior to LPS 50 μg/kg IP, vs vehicle) amounted to 52%.
For `CCOC(=O)c1sc(Nc2nc(N3CCC(O)CC3)cc(N3CCC(O)CC3)n2)nc1C` [Example F2, 2-[4,6-Bis-(4-hydroxy-piperidin-1-yl)-pyrimidin-2-ylamino]-4-methyl-thiazole-5-carboxylic Acid Ethyl Ester], the half-inhibitory concentration (IC50) in the data set with PDE1 is 4.8 µM; in [3] it was over 25 µM; against PDE7 it was 0.06 µM; against PDE6 it was 0.73 µM; with PDE4, 3.2 µM; on PDE3, 20 µM. This compound also gave an IC50 on PDE5 of 0.72 µM. Further, in data set [2] (F2 30 mg/kg, not statistically significant), the “inhibited TNF production” value was 33.7%.
As to `COc1ccc([C@]2(C#N)CC[C@@H](C(=O)O)CC2)cc1OC1CCCC1` [cilomilast, reference compound], the 50% inhibitory concentration (IC50) in the data set on PDE1 was 3.4 µM; in [3] it was 0.43 µM; at PDE7 it was over 50 µM; with PDE4 it was 0.03 µM; at PDE3, over 10 µM; against PDE5 it was over 10 µM. The “inhibited TNF production” value in data set [2] (cilomilast 1 mg/kg) is 56%.
For `C[C@@H]1C[C@H]2[C@@H]3CCC4=CC(=O)C=C[C@]4(C)[C@@]3(F)[C@@H](O)C[C@]2(C)[C@@]1(O)C(=O)CO` [dexamethasone], the “reduction in serum TNF” value in data set [2] (dexamethasone 5 mg/kg 60 min prior to LPS) is reported as 93%. Further, the “inhibited TNF production” value in [2] (dexamethasone control) was determined as 94%.
Regarding `COc1ccc(C2CNC(=O)C2)cc1OC1CCCC1` (centres unmarked) [rolipram, reference compound], the IC50 against PDE7 was over 10 µM. Further, the “Cmax of Rolipram reduced by a factor by co-administration with F1” value in [1] (setting [4]) came to 3 factor. This compound came in with a Cmax in [1] (po, 10 mg) of 0.29 µM. In data set [2] (rolipram 5 mg/kg oral 60 min prior to LPS 50 μg/kg IP, vs vehicle), the “reduction in serum TNF” value turned out to be 54%.

Source of the values: US20030104974A1, “Dual inhibitorsof PDE 7 and PDE 4” (priority 2001, published 2003).
